These results are taken from patent US20080194584A1, “Nitrogen Heteroaromatic Compounds Which Bind To The Active Site Of Protein Kinase Enzymes” (priority 2004, published 2008).

SMILES strings stand for the structures.

The subject of the first experiment is Rho kinase (ROK, ROCK). The experiment in a line: Rho kinase inhibitory activity (ROK activity). The experiment is classed as biochemical. Set-up: key: +: active; ++: more active; +++: very active. To be noted: assays conducted at 1-100 μM.
Turning to `O=C(Cc1ccc(Cl)cc1)Nc1cncc(-c2ccncc2)c1` [Example 1, N-[3,4′]Bipyridinyl-5-yl-2-(4-chloro-phenyl)-acetamide], the ROK activity entry is listed as “+”.

Take `Fc1cc(CNc2cccc(-c3ccncc3)c2)ccc1Cl` [Example 2, (4-Chloro-3-fluoro-benzyl)-(3-pyridin-4-yl-phenyl)-amine]: the ROK activity result is “+++”.

In the case of `Fc1cc(CNc2cncc(-c3ccncc3F)c2)ccc1Cl` [Example 3, (4-Chloro-3-fluoro-benzyl)-(3′-fluoro-[3,4′]bipyridinyl-5-yl)-amine], the ROK activity result was “+++”.

Consider `Fc1cc(CNc2cncc(-c3ccnc(Cl)c3)c2)ccc1Cl` [Example 4, (2′-Chloro-[3,4′]bipyridinyl-5-yl)-(4-chloro-3-fluoro-benzyl)-amine], for which the ROK activity result was “+”.

Regarding `Fc1cc(CNc2cncc(-c3ccncc3Cl)c2)ccc1Cl` [Example 5, (3′-Chloro-[3,4′]bipyridinyl-5-yl)-(4-chloro-3-fluoro-benzyl)-amine], the ROK activity entry is reported as “+++”.

For the compound `Fc1cc(CNc2cncc(-c3ccnc(Cl)c3Cl)c2)ccc1Cl` [Example 6, (4-Chloro-3-fluoro-benzyl)-(2′,3′-dichloro-[3,4′]bipyridinyl-5-yl)-amine], the ROK activity entry is “+”.

Turning to `Fc1cc(CNc2cncc(-c3cccc4ncccc34)c2)ccc1Cl` [Example 7, (4-Chloro-3-fluoro-benzyl)-(5-quinolin-5-yl-pyridin-3-yl)-amine], the ROK activity entry was “++”.

Consider `Fc1cc(CNc2cncc(-c3ccnc(Cl)c3F)c2)ccc1Cl` [Example 8, (4-Chloro-3-fluoro-benzyl)-(2′-chloro-3′-fluoro-[3,4′]bipyridinyl-5-yl)-amine], for which the ROK activity entry is listed as “+”.

Regarding `c1ccc(CNc2cncc(-c3ccncc3)c2)cc1` [Example 9, Benzyl-[3,4′]bipyridinyl-5-yl-amine], the ROK activity entry is listed as “+++”.

Turning to `Clc1cccc(Cl)c1CNc1cncc(-c2ccncc2)c1` [Example 10, [3,4′]Bipyridinyl-5-yl-(2,6-dichloro-benzyl)-amine], the ROK activity result is reported as “+”.

With `FC(F)(F)c1cc(Cl)ccc1CNc1cncc(-c2ccncc2)c1` [Example 11, [3,4′]Bipyridinyl-5-yl-(4-chloro-2-trifluoromethyl-benzyl)-amine], the ROK activity entry is on record as “++”.

In the case of `CC(O)CNc1cc(-c2cncc(NCc3ccc(Cl)cc3)c2)ccn1` (centres unmarked) [Example 12, 1-[5-(4-Chloro-benzylamino)-[3,4′]bipyridinyl-2′-ylamino]-propan-2-ol], the ROK activity result is “+”.

Consider `CC(C)(C)OC(=O)N1CCCC(CNc2cncc(-c3ccncc3)c2)C1` (centres unmarked) [Example 13, 3-([3,4′]Bipyridinyl-5-ylaminomethyl)-piperidine-1-carboxylic acid tert-butyl ester], for which the ROK activity entry is listed as “+”.

Take `CC(C)(C)OC(=O)N1CCC(CNc2cncc(-c3ccncc3)c2)CC1` [Example 14, 4-([3,4′]Bipyridinyl-5-ylaminomethyl)-piperidine-1-carboxylic acid tert-butyl ester]: the ROK activity result is given as “+”.

Consider `CC(C)(C)OC(=O)N1CCC(Nc2cncc(-c3ccncc3)c2)CC1` [Example 15, 4-([3,4′]Bipyridinyl-5-ylamino)-piperidine-1-carboxylic acid tert-butyl ester], for which the ROK activity entry is on record as “+”.

With `c1cc(-c2cncc(NCC3CCCNC3)c2)ccn1` (centres unmarked) [Example 16, [3,4′]Bipyridinyl-5-yl-piperidin-3-ylmethyl-amine], the ROK activity result is listed as “++”.

Turning to `FC(F)(F)c1cccc(CNc2cncc(-c3ccncc3)c2)c1` [Example 17, [3,4′]Bipyridinyl-5-yl-(3-trifluoromethyl-benzyl)-amine], the ROK activity entry was “++”.

Turning to `FC(F)(F)c1ccc(CNc2cncc(-c3ccncc3)c2)cc1` [Example 18, [3,4′]Bipyridinyl-5-yl-(4-trifluoromethyl-benzyl)-amine], the ROK activity result is “+++”.

Regarding `Fc1cc(Cl)ccc1CNc1cncc(-c2ccncc2)c1` [Example 19, [3,4′]Bipyridinyl-5-yl-(4-chloro-2-fluoro-benzyl)-amine], the ROK activity entry is “+++”.

Take `O=C(Nc1cncc(-c2ccncc2)c1)c1ccc(Cl)cc1` [Example 20, N-[3,4′]Bipyridinyl-5-yl-4-chloro-benzamide]: the ROK activity entry was “+”.

Take `O=S(=O)(Nc1cncc(-c2ccncc2)c1)c1ccc(Cl)cc1` [Example 21, N-[3,4′]Bipyridinyl-5-yl-4-chloro-benzenesulfonamide]: the ROK activity entry is given as “+”.

With `Fc1ccc(CNc2cncc(-c3ccncc3)c2)c(F)c1` [Example 22, [3,4′]Bipyridinyl-5-yl-(2,4-difluoro-benzyl)-amine], the ROK activity entry is given as “+++”.

The same experiment, now with this note: assays conducted at 1-100 μM, listed as N-[3,4′]Bipyridinyl-5-yl-2-(4-chloro-phenyl)-acetamide.
As for `O=C(Cc1ccc(Cl)cc1)Nc1cncc(-c2ccncc2)c1` [Example 1, N-[3,4′]Bipyridinyl-5-yl-2-(4-chloro-phenyl)-acetamide], the ROK activity entry is “++”.
